Values quoted from earlier work as cited in publication PMC12304285 (British Journal of Cancer, 2025).

Test system: patients with advanced solid tumours
Design: method as in PMID 33230210
Conditions: single-agent trial; cited from earlier work

## COc1ccc([C@@H](O)c2cc(-c3ncnc4cc(N5CCOCC5)ccc34)c(F)cc2Cl)nn1 [peposertib]
  anaemia or myelosuppressive TEAEs: Neither anaemia nor myelosuppressive TEAEs were reported
